# Experimental data reported in patent publication US7803816B2, “MCH receptor antagonists” (Hoffmann-La Roche Inc., priority 2005, dated 2010).
# Counter-ions that a name gives are not always drawn.
# Target: T1, recombinant human MCHR1-receptors (Homo sapiens, UniProt Q99705)
# T1 construct: expressed in transfected cells
# Experiment: MCHR filter binding assay (competition binding)
# Conditions: membranes from CHO-K1 cells expressing human MCHR1; 0.2 nM [Phe13,[125I]Tyr19]-MCH; read-out: IC50 (nM), in vitro activity (binding assay)
# Experimental: MCHR Filter Binding Assay
# Competition binding assays were performed using membranes from CHO-K1 cells stably expressing the recombinant human MCHR1-receptors. Binding reactions (90 μl, final volume) were carried out at rt by incubating 2.8 μg membranes with 0.2 nM [Phe^13,[^125I]Tyr^19]-MCH (PerkinElmer) in the absence or presence of various concentrations of competing ligands in binding buffer (50 mM HEPES, 2.5 mM CaCl2, 0.05 mM BSA, 1 mM phenanthroline, 0.03 mM Triton X-100). [Phe^13,[^125I]Tyr^19]-MCH was added 15 min following the addition of unlabeled competing ligands, and the reactions incubated for a 1 h period. The reactions were terminated by rapid filtration over pretreated 96-well filter plates (Millipore; MultiScreen 0.65 μm GFB filter plates). Filter Plates were treated for 12 h at 4° C. with a 0.5% polyvinylpyrrolidone solution containing 1% BSA and 0.1% Tween 20, and then washed with an ice-cold solution of 10 mM Tris, pH 7.5 (5×200 μl). The plates were drained following a 5 min incubation with binding buffer (200 μl) at rt. Following termination of the binding reactions, the filters were washed with ice-cold binding buffer (4×200 μl). The filter plates were air dried for 30 min, scintillation cocktail (60 μl) added to each well and radioactivity bound to the plates was determined using a Micro-beta plate reader (Wallace/PerkinElmer).
# T1 sequence (Q99705 whole entry): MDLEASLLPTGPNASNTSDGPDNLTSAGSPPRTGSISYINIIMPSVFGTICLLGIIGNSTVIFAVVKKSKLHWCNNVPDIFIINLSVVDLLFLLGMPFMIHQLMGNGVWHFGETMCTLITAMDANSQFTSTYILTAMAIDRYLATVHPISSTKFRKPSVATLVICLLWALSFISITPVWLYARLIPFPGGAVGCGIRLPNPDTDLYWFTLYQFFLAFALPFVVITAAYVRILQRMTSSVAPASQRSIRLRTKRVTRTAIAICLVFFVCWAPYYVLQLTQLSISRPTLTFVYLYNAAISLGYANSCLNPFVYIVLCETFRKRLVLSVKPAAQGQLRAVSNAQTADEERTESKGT
row,Compound,IC50 [nM]
1,"CS(=O)(=O)c1ccc2c(c1)nc(C(F)(F)F)n2C1CCN(C[C@H]2Cc3ccc(Br)cc3C2)CC1 [Example 121, 1-[1-((S)-5-Bromo-indan-2-ylmethyl)-piperidin-4-yl]-5-methanesulfonyl-2-trifluoromethyl-1H-benzoimidazole]",20 to 200
2,"Cc1ccc2c(c1)nc(C(C)(C)O)n2C1CCN(CC2Cc3cccc(Cl)c3C2)CC1 (centres unmarked) [Example 103, 2-{1-[1-(4-Chloro-indan-2-ylmethyl)-piperidin-4-yl]-5-methyl-1H-benzoimidazol-2-yl}-propan-2-ol; compound with trifluoroacetic acid]",20 to 200
3,"CO[C@@H]1CN(CC2Cc3ccc(C(C)C)cc3C2)CC[C@H]1n1c(C(C)C)nc2cc(C)ccc21 (stereo partly drawn) [Example 98, 2-Isopropyl-1-[(3R,4R)-1-(5-isopropyl-indan-2-ylmethyl)-3-methoxy-piperidin-4-yl]-5-methyl-1H-benzoimidazole]",200 to 5000
4,"CO[C@H]1CN(C[C@@H]2Cc3ccc(NC(=O)C4CC4)cc3C2)CCC1n1c(C2CC2)nc2cc(C)ccc21 (stereo in doubt) [Example 66, Cyclopropanecarboxylic acid {(R)-2-[(3S,4S)-4-(2-cyclopropyl-5-methyl-benzoimidazol-1-yl)-3-methoxy-piperidin-1-ylmethyl]-indan-5-yl}-amide]",< 20
5,"CO[C@H]1CN(C[C@@H]2Cc3ccc(Br)cc3C2)CC[C@@H]1n1c(C(C)(C)O)nc2cc(C)ccc21 [Example 116, 2-{1-[(3S,4S)-1-((R)-5-Bromo-indan-2-ylmethyl)-3-methoxy-piperidin-4-yl]-5-methyl-1H-benzoimidazol-2-yl}-propan-2-ol]",20 to 200
6,"Cc1ccc2c(c1)nc(-c1ccccc1)n2C1CCN(C[C@@H]2Cc3ccc(NC(=O)C(C)C)cc3C2)CC1 [Example 33, N-{(R)-2-[4-(5-Methyl-2-phenyl-benzoimidazol-1-yl)-piperidin-1-ylmethyl]-indan-5-yl}-isobutyramide]",< 20
7,"CO[C@@H]1CN(C[C@H]2Cc3ccc(Br)cc3C2)CC[C@H]1n1c(C(C)(C)O)nc2cc(C)c(F)cc21 [Example 123, 2-{1-[(3R,4R)-1-((S)-5-Bromo-indan-2-ylmethyl)-3-methoxy-piperidin-4-yl]-6-fluoro-5-methyl-1H-benzoimidazol-2-yl}-propan-2-ol]",< 20
8,"CO[C@@H]1CN(C[C@H]2Cc3ccc(NC(=O)C(C)C)cc3C2)CC[C@H]1n1c(C)nc2cc(C)ccc21 [Example 39, N-{(S)-2-[(3R,4R)-4-(2,5-Dimethyl-benzoimidazol-1-yl)-3-methoxy-piperidin-1-ylmethyl]-indan-5-yl}-isobutyramide; dihydrochloride]",< 20
9,"CCC(=O)Nc1ccc2c(c1)C[C@H](CN1CCC(n3c(C(C)C)nc4cc(C)ccc43)C(OC)C1)C2 (stereo partly drawn) [Example 59, N-{(R)-2-[4-(2-Isopropyl-5-methyl-benzoimidazol-1-yl)-3-methoxy-piperidin-1-ylmethyl]-indan-5-yl}-propionamide]",< 20
10,"Cc1ccc2c(c1)nc(C(C)C)n2[C@@H]1CCN(CC2Cc3ccccc3C2)C[C@H]1O [Example 83, (3R,4R)-1-Indan-2-ylmethyl-4-(2-isopropyl-5-methyl-benzoimidazol-1-yl)-piperidin-3-ol]",200 to 5000
11,"Cc1ccc2c(c1)nc(C)n2C1CCN(CC2Cc3ccc(NC(=O)C(C)C)cc3C2)CC1 (centres unmarked) [Example 46, N-{2-[4-(2,5-Dimethyl-benzoimidazol-1-yl)-piperidin-1-ylmethyl]-indan-5-yl}-isobutyramide]",20 to 200
12,"CO[C@@H]1CN(C[C@H]2Cc3ccc(F)cc3C2)CC[C@H]1n1c(C(C)(C)O)nc2cc(C)ccc21 [Example 108, 2-{1-[(3R,4R)-1-((S)-5-Fluoro-indan-2-ylmethyl)-3-methoxy-piperidin-4-yl]-5-methyl-1H-benzoimidazol-2-yl}-propan-2-ol]",20 to 200
13,"CCC(C)C(=O)Nc1ccc2c(c1)CC(CN1CCC(n3c(C)nc4cc(C)ccc43)CC1)C2 (centres unmarked) [Example 51, N-{2-[4-(2,5-Dimethyl-benzoimidazol-1-yl)-piperidin-1-ylmethyl]-indan-5-yl}-2-methyl-butyramide]",20 to 200
14,"Cc1ccc2c(c1)nc(-c1ccccc1)n2C1CCN(C[C@@H]2Cc3ccc(N)cc3C2)CC1 [Example 52, (R)-2-[4-(5-Methyl-2-phenyl-benzoimidazol-1-yl)-piperidin-1-ylmethyl]-indan-5-ylamine]",20 to 200
15,"COC1CN(C[C@@H]2Cc3ccc(NC(=O)C4CC4)cc3C2)CCC1n1c(C(C)C)nc2cc(C)ccc21 (stereo partly drawn) [Example 64, Cyclopropanecarboxylic acid {(R)-2-[4-(2-isopropyl-5-methyl-benzoimidazol-1-yl)-3-methoxy-piperidin-1-ylmethyl]-indan-5-yl}-amide]",< 20
16,"COc1ccc2c(c1)CC(CN1CC[C@H](n3c(C)nc4cc(C)ccc43)[C@@H](OC)C1)C2 (stereo partly drawn) [Example 92, 1-[(3S,4S)-3-Methoxy-1-(5-methoxy-indan-2-ylmethyl)-piperidin-4-yl]-2,5-dimethyl-1H-benzoimidazole; dihydrochloride]",20 to 200
17,"CCc1nc2cc(C)ccc2n1C1CCN(CC2Cc3ccc(NC(=O)C4CC4)cc3C2)CC1 (centres unmarked) [Example 74, Cyclopropanecarboxylic acid {2-[4-(2-ethyl-5-methyl-benzoimidazol-1-yl)-piperidin-1-ylmethyl]-indan-5-yl}-amide]",20 to 200
18,"CO[C@@H]1CN(C[C@@H]2Cc3ccc(NC(=O)C4CC4)cc3C2)CC[C@H]1n1c(C)nc2cc(F)ccc21 [Example 28, Cyclopropanecarboxylic acid {(R)-2-[(3R,4R)-4-(5-fluoro-2-methyl-benzoimidazol-1-yl)-3-methoxy-piperidin-1-ylmethyl]-indan-5-yl}-amide; dihydrochloride]",200 to 5000
19,"CO[C@H]1CN(C[C@H]2Cc3ccc(Br)cc3C2)CC[C@@H]1n1c(C(C)C)nc2cc(C)ccc21 [Example 17, 1-[(3S,4S)-1-((S)-5-Bromo-indan-2-ylmethyl)-3-methoxy-piperidin-4-yl]-2-isopropyl-5-methyl-1H-benzoimidazole]",20 to 200
20,"CO[C@@H]1CN(CC2Cc3ccccc3C2)CC[C@H]1n1c(C(C)(C)O)nc2cc(C)ccc21 [Example 107, 2-[1-((3R,4R)-1-Indan-2-ylmethyl-3-methoxy-piperidin-4-yl)-5-methyl-1H-benzoimidazol-2-yl]-propan-2-ol]",20 to 200
21,"1-((3R,4R)-1-Indan-2-ylmethyl-3-methoxy-piperidin-4-yl)-2,5-dimethyl-1H-benzoimidazole; dihydrochloride [Example 55]",200 to 5000
22,"Cc1ccc2c(c1)CC(CN1CC[C@@H](n3c(C(C)(C)O)nc4cc(C)ccc43)[C@H](O)C1)C2 (stereo partly drawn) [Example 114, (3R,4R)-4-[2-(1-Hydroxy-1-methyl-ethyl)-5-methyl-benzoimidazol-1-yl]-1-(5-methyl-indan-2-ylmethyl)-piperidin-3-ol]",20 to 200
23,"CO[C@@H]1CN(C[C@H]2Cc3ccc(NC(=O)C(C)C)cc3C2)CC[C@H]1n1c(C)nc2cc(C)ccc21 [Example 43, N-{(S)-2-[(3R,4R)-4-(2,5-Dimethyl-benzoimidazol-1-yl)-3-methoxy-piperidin-1-ylmethyl]-indan-5-yl}-isobutyramide]",20 to 200
24,"CCCC(=O)Nc1ccc2c(c1)C[C@H](CN1CC[C@H](n3c(C4CC4)nc4cc(C)ccc43)[C@@H](OC)C1)C2 [Example 62, N-{(R)-2-[(3S,4S)-4-(2-Cyclopropyl-5-methyl-benzoimidazol-1-yl)-3-methoxy-piperidin-1-ylmethyl]-indan-5-yl}-butyramide]",< 20
25,"Cc1ccc2c(c1)nc(C)n2[C@@H]1CCN(C[C@@H]2Cc3ccc(NC(=O)C(C)C)cc3C2)C[C@H]1OCC(C)(C)O [Example 21, N-{(R)-2-[(3R,4R)-4-(2,5-Dimethyl-benzoimidazol-1-yl)-3-(2-hydroxy-2-methyl-propoxy)-piperidin-1-ylmethyl]-indan-5-yl}-isobutyramide; dihydrochloride]",20 to 200
26,"CCC(=O)Nc1ccc2c(c1)C[C@H](CN1CCC(n3c(C(C)C)nc4cc(C)ccc43)[C@@H](OC)C1)C2 (stereo in doubt) [Example 32, N-{(R)-2-[(3S,4S)-4-(2-Isopropyl-5-methyl-benzoimidazol-1-yl)-3-methoxy-piperidin-1-ylmethyl]-indan-5-yl}-propionamide]",< 20
27,"Cc1ccc2c(c1)nc(CC(C)(C)O)n2C1CCN(CC2Cc3ccc(F)cc3C2)CC1 (centres unmarked) [Example 23, 1-{1-[1-(5-Fluoro-indan-2-ylmethyl)-piperidin-4-yl]-5-methyl-1H-benzoimidazol-2-yl}-2-methyl-propan-2-ol; dihydrochloride]",20 to 200
28,"CO[C@@H]1CN(CC2Cc3ccncc3C2)CC[C@H]1n1c(C)nc2cc(C)ccc21 (stereo partly drawn) [Example 119, 1-[(3R,4R)-1-(6,7-Dihydro-5H-[2]pyrindin-6-ylmethyl)-3-methoxy-piperidin-4-yl]-2,5-dimethyl-1H-benzoimidazole]",20 to 200

# Same assay, conditions: membranes from CHO-K1 cells expressing human MCHR1; 0.2 nM [Phe13,[125I]Tyr19]-MCH; read-out: IC50 (nM), selected in vitro MCH-R binding data
row,Compound,IC50 [nM]
1,"CO[C@H]1CN(C[C@@H]2Cc3ccc(NC(=O)C4CC4)cc3C2)CCC1n1c(C2CC2)nc2cc(C)ccc21 (stereo in doubt) [Example 66, Cyclopropanecarboxylic acid {(R)-2-[(3S,4S)-4-(2-cyclopropyl-5-methyl-benzoimidazol-1-yl)-3-methoxy-piperidin-1-ylmethyl]-indan-5-yl}-amide]",12
